Patent US20250074891A1 (Anaxis Pharma Pty Ltd., priority 2021, published 2025)

Columns and labels:
RIP1 = RIP1 (Homo sapiens (Human), UniProt Q13546); test: KINOMEscan binding assay, RIP1; details: Table 35
MLKL (full length) = MLKL (full length) (Homo sapiens (Human), UniProt Q8NB16); test: KINOMEscan binding assay, MLKL (full length); details: Table 35
Description: Kinase assays. For most assays, kinase-tagged T7 phage strains were grown in parallel in 24-well blocks in an E. coli host derived from the BL21 strain. E. coli were grown to log-phase and infected with T7 phage from a frozen stock (multiplicity of infection=0.4) and incubated with shaking at 32° C. until lysis (90-150 minutes).
The Hill Slope was set to −1.

Chain of RIP1 (Q13546 whole entry): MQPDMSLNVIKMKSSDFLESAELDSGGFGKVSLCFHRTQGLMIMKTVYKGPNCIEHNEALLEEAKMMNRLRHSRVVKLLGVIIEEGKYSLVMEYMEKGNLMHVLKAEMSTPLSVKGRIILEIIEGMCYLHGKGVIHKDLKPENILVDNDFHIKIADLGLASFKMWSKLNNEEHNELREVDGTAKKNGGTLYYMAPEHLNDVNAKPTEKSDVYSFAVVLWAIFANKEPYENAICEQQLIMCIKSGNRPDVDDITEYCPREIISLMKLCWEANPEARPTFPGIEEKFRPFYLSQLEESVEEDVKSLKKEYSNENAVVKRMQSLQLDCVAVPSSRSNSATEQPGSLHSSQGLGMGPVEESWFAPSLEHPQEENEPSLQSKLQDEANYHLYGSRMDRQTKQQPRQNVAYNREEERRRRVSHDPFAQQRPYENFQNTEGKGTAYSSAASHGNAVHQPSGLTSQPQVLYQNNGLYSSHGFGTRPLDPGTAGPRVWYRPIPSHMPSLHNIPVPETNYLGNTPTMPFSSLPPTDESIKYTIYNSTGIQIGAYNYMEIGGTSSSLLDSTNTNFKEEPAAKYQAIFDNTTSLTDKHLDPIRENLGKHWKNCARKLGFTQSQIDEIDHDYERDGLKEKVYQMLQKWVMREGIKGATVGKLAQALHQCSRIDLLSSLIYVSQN
Chain of MLKL (full length) (Q8NB16 whole entry): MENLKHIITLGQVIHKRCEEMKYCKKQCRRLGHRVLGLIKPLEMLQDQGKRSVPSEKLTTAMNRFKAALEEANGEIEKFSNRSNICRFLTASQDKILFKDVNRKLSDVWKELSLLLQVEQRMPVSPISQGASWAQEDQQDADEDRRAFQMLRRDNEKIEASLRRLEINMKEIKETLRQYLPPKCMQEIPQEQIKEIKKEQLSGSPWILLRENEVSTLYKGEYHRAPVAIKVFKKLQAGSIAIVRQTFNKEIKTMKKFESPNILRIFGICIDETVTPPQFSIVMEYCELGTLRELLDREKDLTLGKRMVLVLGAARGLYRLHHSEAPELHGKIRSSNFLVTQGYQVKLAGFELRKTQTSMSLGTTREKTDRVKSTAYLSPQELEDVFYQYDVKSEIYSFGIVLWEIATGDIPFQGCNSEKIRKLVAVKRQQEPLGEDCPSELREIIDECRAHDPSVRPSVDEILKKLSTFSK

| Kd (RIP1) [µM] | Kd (MLKL (full length)) [µM] | Structure (SMILES) |
| --- | --- | --- |
| > 30 | < 0.01 | NC(=O)c1c(-c2ccc(NS(=O)(=O)CCC(F)(F)F)cc2)n[nH]c1Nc1cccc(C(F)(F)F)n1 [Compound 189, 5-((6-(trifluoromethyl)pyridine-2-yl)amino)-3-(4-((3,3,3-trifluoropropyl)sulfonamido)phenyl)-1H-pyrazole-4-carboxamide] |
| > 30 | < 0.01 | NC(=O)c1c(-c2ccc(NS(=O)(=O)CC(F)(F)F)cc2)n[nH]c1Nc1cccc(C(F)(F)F)n1 [Compound 43, 3-(4-((2,2,2-trifluoroethyl)sulfonamido)phenyl)-5-((6-(trifluoromethyl)pyridin-2-yl)amino)-1H-pyrazole-4-carboxamide] |
| > 30 | < 0.01 | NC(=O)c1c(-c2ccc(NS(=O)(=O)CC(F)F)cc2)n[nH]c1Nc1cccc(C(F)(F)F)n1 [Compound 49, 3-(4-((2,2-difluoroethyl)sulfonamido)phenyl)-5-((6-(trifluoromethyl)pyridin-2-yl)amino)-1H-pyrazole-4-carboxamide] |
| > 30 | < 0.01 | COCCOc1cc(Nc2[nH]nc(-c3ccc(NS(=O)(=O)C(F)(F)F)cc3)c2C(N)=O)ccn1 [Compound 114, 5-((2-(2-methoxyethoxy)pyridin-4-yl)amino)-3-(4-((trifluoromethyl)sulfonamido)phenyl)-1H-pyrazole-4-carboxamide] |
| > 30 | < 0.01 | COCCOc1cc(Nc2[nH]nc(-c3ccc(NS(C)(=O)=O)cc3)c2C(N)=O)ccn1 [Compound 122, 5-((2-(2-methoxyethoxy)pyridin-4-yl)amino)-3-(4-(methylsulfonamido)phenyl)-1H-pyrazole-4-carboxamide] |
| > 30 | < 0.01 | CCS(=O)(=O)Nc1ccc(-c2n[nH]c(Nc3ccc4ccccc4c3)c2C(N)=O)cc1 [Compound 86, 3-(4-(ethylsulfonamido)phenyl)-5-(naphthalen-2-ylamino)-1H-pyrazole-4-carboxamide] |
| > 30 |  | CCS(=O)(=O)Nc1ccc(-c2n[nH]c(Nc3cnccn3)c2C(N)=O)cc1OC [Compound 61, 3-(4-(ethylsulfon-amido)-3-methoxy-phenyl)-5-(pyrazin-2-ylamino)-1H-pyrazole-4-carboxamide] |
| > 30 |  | NC(=O)c1c(-c2ccc(NS(=O)(=O)c3ccccc3)cc2)n[nH]c1Nc1ccccn1 [Compound 133, 3-(4-(phenylsulfonamido)phenyl)-5-(pyridin-2-ylamino)-1H-pyrazole-4-carboxamide] |
| > 30 | < 0.01 | CCS(=O)(=O)Nc1ccc(-c2n[nH]c(Nc3cnc(C(C)C)cn3)c2C(N)=O)cc1 [Compound 66, 3-(4-(ethylsulfonamido)phenyl)-5-((5-isopropylpyrazin-2-yl)amino)-1H-pyrazole-4-carboxamide] |
| > 30 | < 0.01 | CCS(=O)(=O)Nc1ccc(-c2n[nH]c(Nc3ccnc(OC)c3)c2C(N)=O)cc1OCc1ccc(F)cc1 [Compound 18, 3-(4-(ethylsulfonamido)-3-((4-fluorobenzyl)oxy)phenyl) 5-((2-methoxypyridin-4-yl)amino)-1H-pyrazole-4-carboxamide] |
| > 30 | < 0.01 | CCS(=O)(=O)Nc1ccc(-c2n[nH]c(Nc3ccccn3)c2C(N)=O)cc1 [Compound 131, 3-(4-(ethylsulfonamido)phenyl)-5-(pyridin-2-ylamino)-1H-pyrazole-4-carboxamide] |
| > 30 | < 0.01 | CCS(=O)(=O)Nc1ccc(-c2n[nH]c(Nc3cccc(OC)n3)c2C(N)=O)cc1 [Compound 107, 3-(4-(ethylsulfonamido)phenyl)-5-((6-methoxypyridin-2-yl)amino)-1H-pyrazole-4-carboxamide] |
| > 30 |  | NC(=O)c1c(-c2ccc(NS(=O)(=O)CCc3ccccc3)cc2)n[nH]c1Nc1ccccn1 [Compound 130, 3-(4-((2-phenylethyl)sulfonamido)phenyl)-5-(pyridin-2-ylamino)-1H-pyrazole-4-carboxamide] |
|  | < 0.01 | CCS(=O)(=O)Nc1ccc(-c2n[nH]c(Nc3ccnc(OC)c3)c2C(N)=O)cc1 [Compound 121, 3-(4-(ethylsulfonamido)phenyl)-5-((2-methoxypyridin-4-yl)amino)-1H-pyrazole-4-carboxamide] |
| > 30 |  | CCS(=O)(=O)Nc1ccc(-c2n[nH]c(Nc3cc(C(F)(F)F)ccn3)c2C(N)=O)cc1 [Compound 85, 3-(4-(ethylsulfonamido)phenyl)-5-((4-(trifluoromethyl)pyridin-2-yl)amino)-1H-pyrazole-4-carboxamide] |
| > 30 | < 0.01 | CC(C)S(=O)(=O)Nc1ccc(-c2n[nH]c(Nc3cccc(C(F)(F)F)n3)c2C(N)=O)cc1 [Compound 54, 3-(4-((1-methylethyl)sulfonamido)phenyl)-5-((6-(trifluoromethyl)pyridin-2-yl)amino)-1H-pyrazole-4-carboxamide] |

| Kd (RIP1) [µM] | Kd (MLKL (full length)) [µM] | Structure (SMILES) |
| --- | --- | --- |
| > 30 | < 0.01 | NC(=O)c1c(-c2ccc(NS(=O)(=O)C3CC3)cc2)n[nH]c1Nc1cccc(C(F)(F)F)n1 [Compound 52, 3-(4-(cyclopropanesulfonamido)phenyl)-5-((6-(trifluoromethyl)pyridin-2-yl)amino)-1H-pyrazole-4-carboxamide] |
| > 30 |  | NC(=O)c1c(-c2ccc(NS(=O)(=O)C3CCCCC3)cc2)n[nH]c1Nc1cnccn1 [Compound 74, 3-(4-(cyclohexanesulfonamido)phenyl)-5-(pyrazin-2-ylamino)-1H-pyrazole-4-carboxamide] |
| > 30 | < 0.01 | CC(C)S(=O)(=O)Nc1ccc(-c2n[nH]c(Nc3cnccn3)c2C(N)=O)cc1 [Compound 71, 3-(4-((1-methylethyl)sulfonamido)phenyl)-5-(pyrazin-2-ylamino)-1H-pyrazole-4-carboxamide] |
| > 30 |  | NC(=O)c1c(-c2ccc(NS(=O)(=O)Cc3ccc(F)cc3)cc2)n[nH]c1Nc1cccc(C(F)(F)F)n1 [Compound 55, 3-(4-(((4-fluorophenyl)methyl)sulfonamido)phenyl)-5-((6-(trifluoromethyl)pyridin-2-yl)amino)-1H-pyrazole-4-carboxamide] |
| > 30 |  | NC(=O)c1c(-c2ccc(NS(=O)(=O)Cc3ccccc3)cc2)n[nH]c1Nc1cnccn1 [Compound 77, 3-(4-((phenylmethyl)sulfonamido)phenyl)-5-(pyrazin-2-ylamino)-1H-pyrazole-4-carboxamide] |
| > 30 | < 0.01 | CCS(=O)(=O)Nc1ccc(-c2n[nH]c(Nc3cnc(C)cn3)c2C(N)=O)cc1OCc1ccc(F)c(Cl)c1 [Compound 150, 3-(3-((3-chloro-4-fluorobenzyl)oxy)-4-(ethylsulfonamido)phenyl)-5-((5-methylpyrazin-2-yl)amino)-1H-pyrazole-4-carboxamide] |
| > 30 |  | NC(=O)c1c(-c2ccc(NS(=O)(=O)Cc3ccccc3Cl)cc2)n[nH]c1Nc1cccc(C(F)(F)F)n1 [Compound 58, 3-(4-(((2-chlorophenyl)methyl)sulfonamido)phenyl)-5-((6-(trifluoromethyl)pyridin-2-yl)amino)-1H-pyrazole-4-carboxamide] |
| > 30 | < 0.01 | CCS(=O)(=O)Nc1ccc(-c2n[nH]c(Nc3ccc(OC)nc3)c2C(N)=O)cc1OCc1ccc(F)cc1 [Compound 197, 3-(4-(ethylsulfonamido)-3-((4-fluorobenzyl)oxy)phenyl)-5-((6-methoxypyridin-3-yl)amino)-1H-pyrazole-4-carboxamide] |
| > 30 |  | NC(=O)c1c(-c2ccc(NS(=O)(=O)Cc3ccc(Cl)c(Cl)c3)cc2)n[nH]c1Nc1cccc(C(F)(F)F)n1 [Compound 56, 3-(4-((3,4-dichlorophenyl)methylsulfonamido)phenyl)-5-((6-(trifluoromethyl)pyridin-2-yl)amino)-1H-pyrazole-4-carboxamide] |
| > 30 |  | NC(=O)c1c(-c2ccc(NS(=O)(=O)CC3CCC3)cc2)n[nH]c1Nc1ccccn1 [Compound 134] |
| > 30 |  | CCS(=O)(=O)Nc1ccc(-c2n[nH]c(Nc3cccc(OCCOC)n3)c2C(N)=O)cc1 [Compound 128, 3-(4-(ethylsulfonamido)phenyl)-5-((6-(2-methoxyethoxy)pyridin-2-yl)amino)-1H-pyrazole-4-carboxamide] |
|  | < 0.01 | CCS(=O)(=O)Nc1ccc(-c2n[nH]c(Nc3ccc(OC)cn3)c2C(N)=O)cc1 [Compound 88, 3-(4-(ethylsulfonamido)phenyl)-5-((5-methoxypyridin-2-yl)amino)-1H-pyrazole-4-carboxamide] |
| > 30 | < 0.01 | NC(=O)c1c(-c2ccc(NS(=O)(=O)C(F)F)cc2)n[nH]c1Nc1cccc(C(F)(F)F)n1 [Compound 53, 3-(4-((difluoromethyl)sulfonamido)phenyl)-5-((6-(trifluoromethyl)pyridin-2-yl)amino)-1H-pyrazole-4-carboxamide] |
| > 30 |  | NC(=O)c1c(-c2ccc(NS(=O)(=O)Cc3cccc(Cl)c3)cc2)n[nH]c1Nc1ccccn1 [Compound 129, 3-(4-(((3-chlorophenyl)methyl)sulfonamido)phenyl)-5-(pyridin-2-ylamino)-1H-pyrazole-4-carboxamide] |
| > 30 |  | CCS(=O)(=O)Nc1ccc(-c2n[nH]c(Nc3cccc(C)n3)c2C(N)=O)cc1 [Compound 94, 3-(4-(ethylsulfonamido)phenyl)-5-((6-methylpyridin-2-yl)amino)-1H-pyrazole-4-carboxamide] |
|  | < 0.01 | CCS(=O)(=O)Nc1ccc(-c2n[nH]c(Nc3ccc4ccccc4n3)c2C(N)=O)cc1 [Compound 89, 3-(4-(ethylsulfonamido)phenyl)-5-(quinolin-2-ylamino)-1H-pyrazole-4-carboxamide] |

| Structure (SMILES) | Kd (RIP1) [µM] | Kd (MLKL (full length)) [µM] |
| --- | --- | --- |
| CCS(=O)(=O)Nc1ccc(-c2n[nH]c(Nc3cccc(C(F)(F)F)n3)c2C(N)=O)cc1OCc1cccnc1 [Compound 33, 3-(4-(ethylsulfon-amido)-3-(pyridin-3-ylmethoxy)phenyl)-5-((6-(trifluoro-methyl)pyridin-2-yl)amino)-1H-pyrazole-4-carboxamide] | > 30 |  |
